In this assay the target is human ACC2 (Homo sapiens (Human), UniProt O00763). Description: ACC2 assay, spectrophotometric 384 well assay (NADH-linked kinetic method). The class given is biochemical. As to conditions: human ACC2 construct lacking the 128 N-terminal amino acids; coupled lactate dehydrogenase/pyruvate kinase reaction, 340 nm, 25° C. A digest of the protocol:
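N-terminally truncated human ACC2 (lacking 128 residues), expressed in insect cells, was coupled to pyruvate kinase/lactate dehydrogenase, with NADH and acetyl-CoA at 2000 μM and ATP at 500 μM final. The OD340 decrease was followed over 15 min at 25 °C. Slopes were normalised to vehicle and no-acetyl-CoA controls, and IC50 came from four-parameter regression.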

Sequence of human ACC2 (O00763 129-2458): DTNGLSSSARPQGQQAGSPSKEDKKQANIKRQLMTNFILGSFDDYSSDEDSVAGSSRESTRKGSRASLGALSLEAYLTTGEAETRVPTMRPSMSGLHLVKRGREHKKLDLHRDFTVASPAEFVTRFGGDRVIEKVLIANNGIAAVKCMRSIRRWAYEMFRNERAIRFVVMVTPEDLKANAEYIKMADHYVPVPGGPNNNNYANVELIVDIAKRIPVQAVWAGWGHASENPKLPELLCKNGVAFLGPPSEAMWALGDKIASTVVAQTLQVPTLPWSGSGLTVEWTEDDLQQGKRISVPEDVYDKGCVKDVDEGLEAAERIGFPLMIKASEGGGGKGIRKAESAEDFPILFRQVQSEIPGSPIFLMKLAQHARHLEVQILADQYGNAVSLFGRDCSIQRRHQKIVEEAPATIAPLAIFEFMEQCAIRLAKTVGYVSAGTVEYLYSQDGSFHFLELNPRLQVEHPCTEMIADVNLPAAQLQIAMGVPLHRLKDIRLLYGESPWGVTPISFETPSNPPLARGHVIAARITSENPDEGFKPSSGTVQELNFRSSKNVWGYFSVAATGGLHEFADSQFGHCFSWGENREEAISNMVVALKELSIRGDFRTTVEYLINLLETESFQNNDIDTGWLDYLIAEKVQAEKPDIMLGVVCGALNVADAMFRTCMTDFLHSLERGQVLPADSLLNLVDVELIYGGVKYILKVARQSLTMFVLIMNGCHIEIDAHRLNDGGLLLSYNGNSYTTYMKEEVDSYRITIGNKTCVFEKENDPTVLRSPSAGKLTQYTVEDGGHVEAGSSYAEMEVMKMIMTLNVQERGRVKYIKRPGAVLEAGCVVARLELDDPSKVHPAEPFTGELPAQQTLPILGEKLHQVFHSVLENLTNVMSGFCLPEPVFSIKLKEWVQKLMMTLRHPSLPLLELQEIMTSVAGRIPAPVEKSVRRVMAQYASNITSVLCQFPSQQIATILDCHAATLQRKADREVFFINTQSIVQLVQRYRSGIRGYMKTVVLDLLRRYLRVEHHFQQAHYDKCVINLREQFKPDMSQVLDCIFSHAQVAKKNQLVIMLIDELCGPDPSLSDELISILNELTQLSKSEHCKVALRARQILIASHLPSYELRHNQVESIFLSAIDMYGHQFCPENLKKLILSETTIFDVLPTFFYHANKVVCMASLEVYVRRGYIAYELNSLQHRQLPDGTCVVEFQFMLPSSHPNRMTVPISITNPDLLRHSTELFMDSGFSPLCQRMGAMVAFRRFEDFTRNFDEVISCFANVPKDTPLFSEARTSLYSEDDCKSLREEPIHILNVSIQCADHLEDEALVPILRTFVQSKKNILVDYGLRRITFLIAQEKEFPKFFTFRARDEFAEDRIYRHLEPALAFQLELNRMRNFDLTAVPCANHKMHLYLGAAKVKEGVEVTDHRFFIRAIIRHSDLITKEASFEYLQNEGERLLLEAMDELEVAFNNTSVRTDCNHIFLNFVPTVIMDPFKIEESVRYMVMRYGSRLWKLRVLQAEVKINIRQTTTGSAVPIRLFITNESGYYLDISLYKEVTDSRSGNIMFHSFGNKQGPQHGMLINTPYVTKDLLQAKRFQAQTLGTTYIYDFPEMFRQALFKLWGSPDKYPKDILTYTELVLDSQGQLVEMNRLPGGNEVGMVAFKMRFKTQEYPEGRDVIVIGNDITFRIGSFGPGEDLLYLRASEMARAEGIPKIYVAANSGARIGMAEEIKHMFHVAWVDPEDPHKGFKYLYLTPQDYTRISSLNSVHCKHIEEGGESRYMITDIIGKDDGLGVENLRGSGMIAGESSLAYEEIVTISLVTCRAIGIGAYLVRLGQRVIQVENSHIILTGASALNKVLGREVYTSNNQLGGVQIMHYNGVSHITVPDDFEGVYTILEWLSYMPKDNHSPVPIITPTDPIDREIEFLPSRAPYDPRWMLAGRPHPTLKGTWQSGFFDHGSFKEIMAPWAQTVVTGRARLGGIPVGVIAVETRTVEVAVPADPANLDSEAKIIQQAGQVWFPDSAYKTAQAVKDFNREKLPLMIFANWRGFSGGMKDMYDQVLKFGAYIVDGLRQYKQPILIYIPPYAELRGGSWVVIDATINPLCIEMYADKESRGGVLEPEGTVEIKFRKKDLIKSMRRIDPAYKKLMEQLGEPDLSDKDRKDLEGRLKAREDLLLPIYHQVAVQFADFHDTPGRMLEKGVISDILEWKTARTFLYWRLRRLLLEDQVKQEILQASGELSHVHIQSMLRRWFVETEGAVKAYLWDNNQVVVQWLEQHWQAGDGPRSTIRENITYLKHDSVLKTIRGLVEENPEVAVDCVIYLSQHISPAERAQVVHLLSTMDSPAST

Broadly, the IC50 is the concentration needed to halve the response being measured. A higher IC50 goes with a need for much substance. The molecule `CC(=O)N[C@@H](C)c1ccc(O[C@@H]2CCN(c3cccc(N(C)C[C@H]4CCCO4)n3)C2)cc1` [Example 10.45] showed an IC50 of 165 nM. With `CC(=O)N[C@@H](C)c1ccc(OC2CCN(c3nc(C)ccc3F)C2)cc1` (stereo partly shown) [Example 1.44], the IC50 stood at 256 nM. As to `CC(=O)N[C@@H](C)c1ccc(O[C@@H]2CCN(c3cccc(N(C)CC4CCOC4)n3)C2)cc1` (stereo partly shown) [Example 10.25], 331 nM corresponded to half-maximal inhibition (IC50). For `C[C@H](NC(=O)c1ccno1)c1ccc(OC2CCN(c3ccnc(OCC4CC4)c3)C2)cc1` (stereo partly shown) [Example 2.85], inhibition was half-maximal at 105 nM (IC50). `CCN(C)c1ccnc(N2CC[C@@H](Oc3ccc([C@H](C)NC(C)=O)cc3)C2)c1F` [Example 1.97] displayed an IC50 of 970 nM. Take `C[C@H](NC(=O)C(C)(C)C)c1ccc(O[C@@H]2CCN(c3cccc(C(F)(F)F)n3)C2)cc1` [Example 5.1, N—((S)-1-(4-((R)-1-(6-(Trifluoromethyl)pyridin-2-yl)pyrrolidin-3-yloxy)phenyl)ethyl) pivalamide]: it took 649 nM to reach half-maximal inhibition (IC50). In the case of `CC(=O)N[C@@H](C)c1ccc(OC2CCN(c3cc(OCC4CC4)ncc3C)C2)cc1` (stereo partly shown) [Example 1.25] it was 228 nM.

The molecule `C[C@H](NC(=O)c1cnn(C)c1)c1ccc(OC2CCN(c3ccnc(OCC(F)F)c3)C2)cc1` (stereo partly shown) [Example 2.102] gave an IC50 of 136 nM.

Molecule `CC(C)Oc1cc(N2CCC(Oc3ccc([C@H](C)NC(=O)CC#N)cc3)C2)ccn1` (stereo partly shown) [Example 2.7] displayed an IC50 of 389 nM.

Take `C[C@H](NC(=O)C1CC1)c1ccc(O[C@@H]2CCN(c3ccnc(OC4CCC4)c3)C2)cc1` [Example 9.41]: inhibition was half-maximal at 95 nM (IC50). In the case of `Cc1cccc(N2CC[C@@H](Oc3ccc([C@H](C)NC(=O)c4cncs4)cc3)C2)n1` [Example 1.85] it was 107 nM. Next, `CSc1ccc(N2CCC(Oc3ccc([C@H](C)NC(C)=O)cc3)C2)cn1` (stereo partly shown) [Example 1.83]: 2990 nM. The molecule `C[C@H](NC(=O)CO)c1ccc(OC2CCN(c3ccnc(OCC4CC4)c3)C2)cc1` (stereo partly shown) [Example 2.72] gave an IC50 of 130 nM. In the case of `COC[C@H]1CCCN1c1cccc(N2CC[C@@H](Oc3ccc([C@H](C)NC(C)=O)cc3)C2)n1` [Example 10.41] it was 1020 nM.

In turn, `CC(C)C(=O)N[C@@H](C)c1ccc(OC2CCN(c3cccc(C(F)(F)F)n3)C2)cc1` (stereo partly shown) [Example 2.38] returned an IC50 of 869 nM. For `C[C@H](NC(=O)c1cnc(N)o1)c1ccc(OC2CCN(c3ccc(OCC4CC4(F)F)cn3)C2)cc1` (stereo partly shown) [Example 2.57], the midpoint of inhibition, the IC50, lay at 255 nM. `CCC(=O)N[C@@H](C)c1ccc(OC2CCN(c3cccc(C(F)(F)F)n3)C2)cc1` (stereo partly shown) [Example 2.41] showed an IC50 of 315 nM.

On to `CC(=O)Nc1nc(C)c(C(=O)N[C@@H](C)c2ccc(O[C@@H]3CCN(c4ccnc(OCC5CC5)c4)C3)cc2)s1` [Example 1.43], for which 59 nM corresponded to half-maximal inhibition (IC50).

`CC(=O)N[C@@H](C)c1ccc(O[C@@H]2CCN(c3nccc(N(C)C)c3F)C2)cc1` [Example 1.98] returned a half-inhibitory concentration (IC50) of 967 nM.

`CCN(C)c1cccc(N2CC[C@@H](Oc3ccc([C@H](C)NC(C)=O)cc3)C2)n1` [Example 10.30] showed an IC50 of 154 nM. Turning to `CCOc1cc(N2CCC(Oc3ccc([C@H](C)NC(C)=O)cc3)C2)c(F)cn1` (stereo partly shown) [Example 1.30], the half-maximal inhibitory concentration (IC50) turned out to be 117 nM. Next, `CC(=O)N[C@@H](C)c1ccc(O[C@@H]2CCN(c3ccnc(OCC(F)F)c3)C2)cc1` [Example 9.31]: 90 nM. In the case of `CC(=O)N[C@@H](C)c1ccc(O[C@@H]2CCN(c3cc(OCC(C)C)ncc3C#N)C2)cc1` [Example 9.56] it was 900 nM; in that of `CC(=O)N[C@@H](C)c1ccc(OC2CCN(c3ncc(OCC4CC4(F)F)cc3Cl)C2)cc1` (stereo partly shown) [Example 1.77], 29 nM.

Turning to `C[C@H](NC(=O)c1cncs1)c1ccc(O[C@@H]2CCN(c3ccnc(OC4CCOC4)c3)C2)cc1` (stereo partly shown) [Example 9.65], the IC50 worked out at 85 nM. In turn, `C[C@H](NC(=O)c1ccnc(F)c1)c1ccc(OC2CCN(c3cccc(C(F)(F)F)n3)C2)cc1` (stereo partly shown) [Example 2.54] came in with an IC50 of 455 nM. On to `COc1cc(OCC2CC2(F)F)cnc1N1CCC(Oc2ccc([C@H](C)NC(C)=O)cc2)C1` (stereo partly shown) [Example 1.81], for which half-maximal inhibition (IC50) required 425 nM. `CC(=O)N[C@@H](C)c1ccc(O[C@@H]2CCN(c3ccnc(OC4CCC4)c3)C2)cc1` [Example 9.1] yielded an IC50 of 39 nM. Next, `CC(=O)N[C@@H](C)c1ccc(O[C@@H]2CCN(c3cc(N4CCCC4)ncc3F)C2)cc1` [Example 10.20]: 167 nM.

`COC1CCCN(c2cccc(N3CC[C@@H](Oc4ccc([C@H](C)NC(C)=O)cc4)C3)n2)C1` (stereo partly shown) [Example 10.37] displayed a half-maximal inhibitory concentration (IC50) of 325 nM. For `CCOc1cc(N2CC[C@@H](Oc3ccc([C@H](C)NC(=O)c4sc(NC(C)=O)nc4C)cc3)C2)ccn1` [Example 1.47], half-maximal inhibition (IC50) was put at 120 nM. Molecule `COC(=O)N[C@@H](C)c1ccc(OC2CCN(c3ccnc(OCC(F)F)c3)C2)cc1` (stereo partly shown) [Example 4.5] gave a concentration for half-maximal inhibition (IC50) of 166 nM. In turn, `CC(=O)N[C@@H](C)c1ccc(O[C@@H]2CCN(c3ccnc(OCC(C)C)c3C)C2)cc1` [Example 9.58] yielded a half-maximal inhibitory concentration (IC50) of 55 nM. Molecule `COCC(=O)Nc1nc(C)c(C(=O)N[C@@H](C)c2ccc(OC3CCN(c4ccc(OCC5CC5(F)F)cn4)C3)cc2)s1` (stereo partly shown) [Example 2.120] displayed an IC50 of 37 nM.

In the case of `CC(=O)N[C@@H](C)c1ccc(O[C@@H]2CCN(c3cccc(N(C)CC4CC4)n3)C2)cc1` [Example 10.2], the IC50 is 208 nM.

On to `CC(=O)NC1CCCN(C(=O)N[C@@H](C)c2ccc(OC3CCN(c4ccc(OCC5CC5(F)F)cn4)C3)cc2)C1` (stereo partly shown) [Example 3.21], for which the IC50 was 363 nM.

In the case of `CCN(CCO)c1cccc(N2CC[C@@H](Oc3ccc([C@H](C)NC(C)=O)cc3)C2)n1` [Example 10.43], the midpoint of inhibition, the IC50, lay at 770 nM. On to `CC(=O)Nc1nc(C)c(C(=O)N[C@@H](C)c2ccc(O[C@@H]3CCN(c4ccnc(OC(C)C)c4)C3)cc2)s1` [Example 1.49], for which it took 179 nM to reach half-maximal inhibition (IC50). For `CC(=O)N[C@@H](C)c1ccc(O[C@@H]2CCN(c3ccnc(OCC(F)F)c3Cl)C2)cc1` [Example 9.72], the IC50 stood at 79 nM. In the case of `CC(=O)N[C@@H](C)c1ccc(O[C@@H]2CCN(c3cc(N(C)C)ncc3F)C2)cc1` [Example 10.24] it was 285 nM; in that of `CC(=O)N[C@@H](C)c1ccc(OC2CCN(c3ccc(C4CC4)cn3)C2)cc1` (stereo partly shown) [Example 1.70], 722 nM; in that of `C[C@H](NC(=O)c1ccnnc1)c1ccc(OC2CCN(c3ccnc(OCC(F)F)c3)C2)cc1` (stereo partly shown) [Example 2.108], 714 nM.

As for `C[C@H](NC(=O)CCO)c1ccc(OC2CCN(c3cccc(C(F)(F)F)n3)C2)cc1` (stereo partly shown) [Example 2.55], the IC50 turned out to be 424 nM.

In the case of `CC(C)Oc1cc(N2CCC(Oc3ccc([C@H](C)NC(=O)c4ccno4)cc3)C2)ccn1` (stereo partly shown) [Example 2.10], the IC50 amounted to 670 nM.

Turning to `CC(=O)N[C@@H](C)c1ccc(OC2CCN(c3ccc(OCCCF)nc3)C2)cc1` (stereo partly shown) [Example 1.88], the IC50 stood at 423 nM. As to `CC(=O)N[C@@H](C)c1ccc(O[C@@H]2CCN(c3cc(OCC(F)F)ncc3F)C2)cc1` [Example 9.70], the IC50 worked out at 124 nM. In the case of `CC(=O)N[C@@H](C)c1ccc(O[C@@H]2CCN(c3ccnc(NCC4CC4)c3Cl)C2)cc1` [Example 1.138], the IC50 was 26 nM. In turn, `CCOc1cnc(N2CCC(Oc3ccc([C@H](C)NC(C)=O)cc3)C2)c(Cl)c1` (stereo partly shown) [Example 1.78] displayed an IC50 of 198 nM. In the case of `CC(=O)N[C@@H](C)c1ccc(OC2CCN(c3cc(OCC(F)F)ncc3C)C2)cc1` (stereo partly shown) [Example 1.92] it was 524 nM. In the case of `CC(=O)N[C@@H](C)c1ccc(O[C@@H]2CCN(c3ccnc(OC(C)c4ccccc4)c3)C2)cc1` (stereo partly shown) [Example 9.19] it was 330 nM. `CC(=O)N[C@@H](C)c1ccc(O[C@@H]2CCN(c3ccnc(N4CCC4)c3Cl)C2)cc1` [Example 1.131] had an IC50 of 76 nM.

On to `CC(C)Oc1cc(N2CCC(Oc3ccc([C@H](C)NC(=O)C4CC4)cc3)C2)ccn1` (stereo partly shown) [Example 2.3], for which the IC50 was found to be 149 nM. Next, `CC(=O)N[C@@H](C)c1ccc(O[C@@H]2CCN(c3ccnc(OCCC4CC4)c3)C2)cc1` [Example 9.14]: 75 nM; `COc1c(N2CC[C@@H](Oc3ccc([C@H](C)NC(C)=O)cc3)C2)ccnc1OCC(C)(C)OC` [Example 1.149]: 156 nM. Regarding `COC(=O)N[C@@H](C)c1ccc(OC2CCN(c3ccnc(OCC4CC4)c3)C2)cc1` (stereo partly shown) [Example 4.4], half-maximal inhibition (IC50) required 70 nM.

In turn, `C[C@H](NC(=O)c1ccon1)c1ccc(OC2CCN(c3ccnc(OCC(F)F)c3)C2)cc1` (stereo partly shown) [Example 2.110] came in with an IC50 of 263 nM. Take `CCOc1ccc(N2CC[C@@H](Oc3ccc([C@H](C)NC(C)=O)cc3)C2)c(OC)n1` [Example 1.128]: the IC50 is 360 nM.

In turn, `CC(=O)N[C@@H](C)c1ccc(OC2CCN(c3ccc(OCC(C)C)cn3)C2)cc1` (stereo partly shown) [Example 1.8] gave a 50% inhibitory concentration (IC50) of 375 nM. For `CC(=O)N[C@@H](C)c1ccc(O[C@@H]2CCN(c3nc(N4CCCC4)c(F)cc3F)C2)cc1` [Example 10.8], 594 nM corresponded to half-maximal inhibition (IC50). Next, `C[C@H](NC(=O)c1cncnc1)c1ccc(OC2CCN(c3ccnc(OCC4CC4)c3)C2)cc1` (stereo partly shown) [Example 2.79]: 456 nM. In the case of `CC(=O)N[C@@H](C)c1ccc(O[C@@H]2CCN(c3ccc(OCC4CC4(F)F)cn3)C2)cc1` (stereo partly drawn) [Example 1.1, N—((1S)-1-(4-((3R)-1-(5-((2,2-Difluorocyclopropyl)methoxy)pyridin-2-yl)pyrrolidin-3-yloxy)phenyl)ethyl)acetamide] it was 46 nM; in that of `C[C@H](NC(=O)N(C)C)c1ccc(OC2CCN(c3ccc(OCC4CC4(F)F)cn3)C2)cc1` (stereo partly shown) [Example 1.54], 140 nM.

Take `CO[C@@H]1CN(c2cccc(C(F)(F)F)n2)C[C@@H]1Oc1ccc([C@H](C)NC(C)=O)cc1` [Example 8.9]: the half-inhibitory concentration (IC50) is 105 nM.

`CC(=O)N[C@@H](C)c1ccc(O[C@@H]2CCN(c3cccc(N(C)CC(C)C)n3)C2)cc1` [Example 10.36]: inhibition was half-maximal at 399 nM (IC50).

For the origin of these results see patent publication US8877741B2, “Pyrrolidine derivatives, pharmaceutical compositions and uses thereof” (Boehringer Ingelheim International GmbH, priority 2013, dated 2014).
